One may read the solubility as how much of the substance goes into solution per volume. A low value points to a poorly soluble substance.

≈ marks a conversion by molar mass, not a printed value.

Series [1] can be described thus: water solubility in aqueous buffer under physiological conditions. As to conditions: for solubility: aqueous buffer.
Series [2] can be described thus: oral bioavailability of phosphate prodrug versus active drug. Type of series: in vivo. The settings on record: prodrug with progroup —CH2—O—P(O)(OH)2 compared with Compound 1.

The compound `COc1cc(Nc2ncc(F)c(Nc3ccc4c(n3)NC(=O)C(C)(C)O4)n2)cc(OC)c1OC` [Compound 1, N4-(2,2-Dimethyl-3-oxo-4H-5-pyrid[1,4]oxazin-6-yl)-5-fluoro-N2-(3,4,5-trimethoxyphenyl)-2,4-pyrimidinediamine] came in with a solubility in series [1] of 1 to 2 µg/mL (≈ 2.13 to 4.25 µM).
Consider `COc1cc(Nc2ncc(F)c(Nc3ccc4c(n3)N(COP(=O)(O)O)C(=O)C(C)(C)O4)n2)cc(OC)c1OC` [Compound 4], for which, in series [1], the solubility is > 5000 µg/mL. Also, in series [1] (aqueous buffer under physiological conditions, prodrug vs Compound 1), the “solubility relative to active drug (Compound 1)” value is recorded as “approximately 2000 times greater”. Further, the oral bioavailability result in series [2] is on record as “increased dramatically”.

(Values after patent publication US20260199364A1, “USE OF A SYK INHIBITOR FOR THE TREATMENT OF SICKLE CELL DISEASE” (Rigel Pharmaceuticals, Inc., priority 2023, published 2026).)
